Source: ChEMBL document CHEMBL1201862, “PubChem BioAssay data set” (2004)
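Cells were grown in 96-well plates and exposed to each compound for 48 hours at five concentrations; endpoints were interpolated linearly between bracketing concentrations, or set to the highest concentration if not reached. Here, GI50 denotes the concentration required for 50% inhibition of growth.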 The source made the active and inactive calls. Rule as the data show it: active = GI50 up to about 1.1 µM and inactive = higher.

Experiments:
Experiment in all cases: growth of human tumour cells (NCI), 48 h
OVCAR-3 = test system: OVCAR-3
U-251 = test system: U-251
SK-MEL-2 = test system: SK-MEL-2
SF-268 = test system: SF-268
UACC-257 = test system: UACC-257
HCT-15 = test system: HCT-15
UO-31 = test system: UO-31
HCT-116 = test system: HCT-116
Hs-578T = test system: Hs-578T
KM12 = test system: KM12
OVCAR-8 = test system: OVCAR-8
HOP-92 = test system: HOP-92
A498 = test system: A498
K562 = test system: K562
NCI/ADR-RES = test system: NCI/ADR-RES
T47D = test system: T47D
HT-29 = test system: HT-29
SK-OV-3 = test system: SK-OV-3
SK-MEL-5 = test system: SK-MEL-5

Row | Compound | GI50 (OVCAR-3) | GI50 (U-251) | GI50 (SK-MEL-2) | GI50 (SF-268) | GI50 (UACC-257) | GI50 (HCT-15) [µM] | GI50 (UO-31) | GI50 (HCT-116) | GI50 (Hs-578T) | GI50 (KM12) | GI50 (OVCAR-8) | GI50 (HOP-92) | GI50 (A498) | GI50 (K562) | GI50 (NCI/ADR-RES) | GI50 (T47D) | GI50 (HT-29) | GI50 (SK-OV-3) | GI50 (SK-MEL-5)
1 | c1nnc(NCNc2nncs2)s1 | 21.5 µM (inactive) | 50 µM (inactive) | 68.9 µM (inactive) | > 100 µM (inactive) | 47.8 µM (inactive) | 40.2 | 53.3 µM (inactive) | 33.7 µM (inactive) | > 100 µM (inactive) | 50.1 µM (inactive) | 69.5 µM (inactive) | > 100 µM (inactive) | 4.16 µM (inactive) | 42.8 µM (inactive) | > 100 µM (inactive) | 90.4 µM (inactive) | 19.1 µM (inactive) | 23.7 µM (inactive) | 62.2 µM (inactive)
2 | O=C(CCc1ccc(O)cc1)NCCc1ccc(O)cc1 | > 100 µM (inactive) | > 100 µM (inactive) | > 100 µM (inactive) | > 100 µM (inactive) | > 100 µM (inactive) | > 100 | > 100 µM (inactive) | > 100 µM (inactive) | > 100 µM (inactive) | > 100 µM (inactive) | > 100 µM (inactive) | > 100 µM (inactive) | > 100 µM (inactive) | > 100 µM (inactive) | > 100 µM (inactive) | > 100 µM (inactive) | > 100 µM (inactive) | > 100 µM (inactive) | > 100 µM (inactive)
3 | N/C(=N/c1ccc(O)cc1)S(=O)(=O)O | > 100 µM (inactive) | > 100 µM (inactive) | > 100 µM (inactive) | > 100 µM (inactive) | > 100 µM (inactive) | > 100 | > 100 µM (inactive) | > 100 µM (inactive) | > 100 µM (inactive) | > 100 µM (inactive) | > 100 µM (inactive) | > 100 µM (inactive) | > 100 µM (inactive) | > 100 µM (inactive) | > 100 µM (inactive) | > 100 µM (inactive) | > 100 µM (inactive) | > 100 µM (inactive) | > 100 µM (inactive)
4 | CCCCCc1nnc(NS(=O)(=O)c2ccc(NC(=O)OCC(C)C)cc2)s1 | 30.3 µM (inactive) | 42.9 µM (inactive) | 19.1 µM (inactive) | 41.9 µM (inactive) | 79.6 µM (inactive) | 36 | 33.4 µM (inactive) | 26.2 µM (inactive) | 51.2 µM (inactive) | 36.1 µM (inactive) | 32.2 µM (inactive) | 24.1 µM (inactive) | 2.64 µM (inactive) | 25.2 µM (inactive) | 39.4 µM (inactive) | 34.2 µM (inactive) | 26.8 µM (inactive) | 31.5 µM (inactive) | 27.1 µM (inactive)
5 | CC(=O)O[C@H]1C(=O)[C@@]2(C)[C@H]([C@H](OC(=O)c3ccccc3)[C@]3(O)C[C@H](OC(=O)[C@H](O)[C@@H](NC(=O)c4ccc(N)cc4)c4ccccc4)C(C)=C1C3(C)C)[C@]1(OC(C)=O)CO[C@@H]1C[C@@H]2O | < 0.005 µM (active) | < 0.005 µM (active) | < 0.005 µM (active) | 0.0107 µM (active) | – | 2.68 | 8.32 µM (inactive) | < 0.005 µM (active) | < 0.005 µM (active) | < 0.005 µM (active) | 0.0105 µM (active) | 35.1 µM (inactive) | 0.0902 µM (active) | < 0.005 µM (active) | 15.3 µM (inactive) | < 0.005 µM (active) | < 0.005 µM (active) | 0.0134 µM (active) | < 0.005 µM (active)
6 | O=C(/C=C/c1cccc(Oc2ccccc2)c1)NCc1ccc(C(=O)NCc2ccccc2)cc1 | 68.5 µM (inactive) | 38.1 µM (inactive) | 26 µM (inactive) | > 100 µM (inactive) | > 100 µM (inactive) | > 100 | > 100 µM (inactive) | 50.6 µM (inactive) | > 100 µM (inactive) | > 100 µM (inactive) | 14.1 µM (inactive) | 37.8 µM (inactive) | 51.5 µM (inactive) | > 100 µM (inactive) | 35.3 µM (inactive) | > 100 µM (inactive) | 17.3 µM (inactive) | 4.55 µM (inactive) | > 100 µM (inactive)
7 | Cc1cc(NS(=O)(=O)c2ccc(NC(=O)c3ccc4nc5ccccc5c(Nc5ccc(S(=O)(=O)N=C(N)N)cc5)c4c3)cc2)no1 | 17.7 µM (inactive) | 16.2 µM (inactive) | 16.5 µM (inactive) | 19 µM (inactive) | 26.2 µM (inactive) | 15.4 | 17.2 µM (inactive) | 17.3 µM (inactive) | 20 µM (inactive) | 17.1 µM (inactive) | 18.2 µM (inactive) | 14.7 µM (inactive) | 19.5 µM (inactive) | 10.6 µM (inactive) | 25.2 µM (inactive) | 14.6 µM (inactive) | 21.4 µM (inactive) | 23.3 µM (inactive) | 16.2 µM (inactive)
8 | Cc1cc(N(CCC#N)CCC#N)ccc1/C=N/NC(=O)c1ccccc1 | 15 µM (inactive) | 22.5 µM (inactive) | 52.8 µM (inactive) | > 48.8 µM (inactive) | > 48.9 µM (inactive) | 5.28 | > 62.1 µM (inactive) | 7.57 µM (inactive) | 15.4 µM (inactive) | 3.54 µM (inactive) | 23.5 µM (inactive) | 76.4 µM (inactive) | 10.1 µM (inactive) | 3.76 µM (inactive) | 8.63 µM (inactive) | 24.8 µM (inactive) | 3.79 µM (inactive) | 18.5 µM (inactive) | 22 µM (inactive)
9 | N#Cc1c2c([nH]c(=O)c1C#N)CCCC2 | > 100 µM (inactive) | > 100 µM (inactive) | > 100 µM (inactive) | > 100 µM (inactive) | > 100 µM (inactive) | > 100 | > 100 µM (inactive) | > 100 µM (inactive) | > 100 µM (inactive) | > 100 µM (inactive) | > 100 µM (inactive) | 79.1 µM (inactive) | > 100 µM (inactive) | > 100 µM (inactive) | > 100 µM (inactive) | > 100 µM (inactive) | > 100 µM (inactive) | > 100 µM (inactive) | > 100 µM (inactive)
10 | CC(=O)Oc1c2c(c(CC=C(C)C)c3c1C(=O)C1=C[C@@H]4CC5C(C)(C)OC(C/C=C(/C)C(=O)O)(C4=O)[C@@]15O3)OC(C)(CCC=C(C)C)C=C2 (stereo not given in full) | 0.308 µM (active) | 0.0918 µM (active) | 0.305 µM (active) | 0.408 µM (active) | 0.384 µM (active) | 0.244 | 0.173 µM (active) | 0.149 µM (active) | 0.337 µM (active) | 0.188 µM (active) | 0.184 µM (active) | 0.237 µM (active) | 0.65 µM (active) | 0.409 µM (active) | 0.525 µM (active) | 0.12 µM (active) | 0.19 µM (active) | 0.585 µM (active) | 0.378 µM (active)
11 | C/C(CC(O)(C(F)(F)F)C(F)(F)F)=N\N | > 10 µM (inactive) | > 10 µM (inactive) | > 10 µM (inactive) | > 10 µM (inactive) | > 10 µM (inactive) | > 10 | – | > 10 µM (inactive) | > 10 µM (inactive) | > 10 µM (inactive) | > 10 µM (inactive) | > 10 µM (inactive) | > 10 µM (inactive) | > 10 µM (inactive) | > 10 µM (inactive) | > 10 µM (inactive) | > 10 µM (inactive) | > 10 µM (inactive) | > 10 µM (inactive)
12 | COc1ccc2nc3cc(Cl)ccc3c(NCCCN(C)CCCNc3ccc4ncn5c6ccccc6c(=O)c3c45)c2c1 | 1.57 µM (inactive) | 0.0478 µM (active) | 3.3 µM (inactive) | 0.246 µM (active) | 0.973 µM (active) | 0.0476 | 0.488 µM (active) | 0.0025 µM (active) | 3.99 µM (inactive) | 0.123 µM (active) | 0.163 µM (active) | 3.26 µM (inactive) | 4.22 µM (inactive) | 0.00383 µM (active) | 1.26 µM (inactive) | 4.15 µM (inactive) | 0.0025 µM (active) | 2.72 µM (inactive) | 0.366 µM (active)
13 | COC(=O)CC(c1ccccc1)C(C#N)(OP1(=O)OC(c2ccccc2)C(C)N1C)c1ccccc1 (stereo not given) | 77.1 µM (inactive) | 54.1 µM (inactive) | 27.9 µM (inactive) | > 100 µM (inactive) | 34.9 µM (inactive) | 41.2 | 11.1 µM (inactive) | 48.4 µM (inactive) | > 100 µM (inactive) | 35 µM (inactive) | 48 µM (inactive) | 94 µM (inactive) | 39.4 µM (inactive) | 26.2 µM (inactive) | 50.5 µM (inactive) | 68.2 µM (inactive) | 46.8 µM (inactive) | > 100 µM (inactive) | 19 µM (inactive)
14 | COC(=O)C1CN=CN1CCc1ccccc1 (stereo not given) | > 100 µM (inactive) | > 100 µM (inactive) | > 100 µM (inactive) | – | > 100 µM (inactive) | > 100 | > 100 µM (inactive) | > 100 µM (inactive) | > 100 µM (inactive) | > 100 µM (inactive) | > 100 µM (inactive) | > 100 µM (inactive) | > 100 µM (inactive) | > 100 µM (inactive) | > 100 µM (inactive) | > 100 µM (inactive) | > 100 µM (inactive) | > 100 µM (inactive) | > 100 µM (inactive)
15 | CCOc1cc(NC(C)=O)ccc1C(=O)N/N=C/c1ccco1 | > 100 µM (inactive) | – | > 100 µM (inactive) | > 100 µM (inactive) | > 100 µM (inactive) | > 100 | – | > 100 µM (inactive) | > 100 µM (inactive) | > 100 µM (inactive) | > 100 µM (inactive) | 11.8 µM (inactive) | 62.8 µM (inactive) | 4.05 µM (inactive) | > 100 µM (inactive) | > 100 µM (inactive) | > 100 µM (inactive) | > 100 µM (inactive) | > 100 µM (inactive)
